Experimental data: patent publication US20260183274A1, “PDK1 REGULATORY COMPOUND AND COMPOSITION CONTAINING THE SAME” (PROVIBIO CO., LTD., priority 2024, published 2026)

Tested on: T cells isolated from mouse spleens
Test: T cell proliferation inhibition (CFSE flow cytometry, anti-CD3/anti-CD28 stimulation)
Format: cell-based
Conditions: mouse spleen T cells, 3 days; for inhibition at 0.01 µM / inhibition at 0.1 µM / inhibition at 1 µM / inhibition at 10 µM / inhibition at 30 µM / inhibition at 50 µM: Mus musculus, T-cell, 72 h, read-out: Proliferation inhibition rate (%)
Experimental: To verify the T cell proliferation inhibitory effect of the compounds according to the present invention, the following experiment was performed based on flow cytometry analysis using carboxyfluorescein diacetate succinimidyl ester (CFSE), a fluorescent dye that binds to intracellular molecules via covalent bonds.
Spleens were extracted from 7-week-old C57BL/6 mice, ground, and then separated into single cells using a strainer (40 μm pore size, SPL). Red blood cells were removed using ACK (Ammonium-Chloride-Potassium) lysis buffer to isolate white blood cells.
Finally, using a MACS Magnetic Stand and LS column, T cells were isolated from the spleen.
The T cells isolated from the spleen were resuspended in 1 mL of free medium (RPMI-1640+200 U/mL penicillin+200 μg/mL streptomycin), and 0.3 μL of CFSE (10 mM) was added. The mixture was incubated at 37° C. for 5 minutes.
Free medium (10 mL) was added to stop the reaction, and the cells were centrifuged to obtain the cell pellet.
RPMI 1640 medium containing 10% FBS, 100 U/mL penicillin, 100 μg/mL streptomycin, and resuspended the cells. The cells were then seeded into a 96-well plate at a density of 2×10^5 cells per well and activated with CD3 and CD28 antibodies (0.5 μg/mL each) to activate T cells.
The compound diluted in DMSO was added at concentrations of 10 nM, 100 nM, 1 μM, 10 μM, 30 μM, and 50 μM, with three wells per concentration, and cultured at 37° C. and 5% CO2 for three days. The cells were then analyzed using a FACS Canto instrument.
The proliferation inhibition rate (%) was calculated using the following formula: […]

| SMILES | Proliferation inhibition rate (%) (compound 10 nM) | Proliferation inhibition rate (%) (compound 100 nM) | Proliferation inhibition rate (%) (compound 1 μM) | Proliferation inhibition rate (%) (compound 10 μM) | Proliferation inhibition rate (%) (compound 30 μM) | Proliferation inhibition rate (%) (compound 50 μM) | inhibition at 0.01 µM (compound 10 nM) [%] | inhibition at 0.1 µM (compound 100 nM) [%] | inhibition at 1 µM (compound 1 μM) [%] | inhibition at 10 µM (compound 10 μM) [%] | inhibition at 30 µM (compound 30 μM) [%] | inhibition at 50 µM (compound 50 μM) [%] |
| --- | --- | --- | --- | --- | --- | --- | --- | --- | --- | --- | --- | --- |
| CN(CCCCCCCCCCCCNC(=O)c1cccnc1N)C1CCCCC1 [Compound 34, 2-Amino-N-(12-(cyclohexyl(methyl)amino)dodecyl) nicotinamide] | 2.08 | 100.00 | 100.00 | 100.00 | 100.00 | 100.00 |  |  |  |  |  |  |
| O=C(NCCCCCCCCCCCCF)c1cccnc1Br [Compound 58, 2-Bromo-N-(12-fluoro-dodecyl)-nicotinamide] |  |  |  |  |  |  | -4.38 | 1.78 | 1.92 | 20 | 78.9 | 95.8 |
| Cc1nccn1-c1cccc(C(=O)NCCCCCCCCCCCCN2CCN(C)CC2)c1 [Compound 207, 3-(2-methyl-1H-imidazol-1-yl)-N-(12-(4-methylpiperazin-1-yl)dodecyl)benzamide] |  |  |  |  |  |  | -5.35 | -3.91 | -3.04 | 100 | 100 | 100 |
| Nc1ncccc1C(=O)NCCCCCCCCCCCCN1CCOC1=O [Compound 127, 2-amino-N-(12-(2-oxooxazolidin-3-yl)dodecyl) nicotinamide] | −2.24 | 10.30 | 15.07 | 100.00 | 100.00 | 100.00 |  |  |  |  |  |  |
| CN1CCN(CCCCCCCCCCCCNC(=O)c2ccccc2Cc2ccccc2)CC1 [Compound 196, 2-Benzyl-N-(12-(4-methylpiperazin-1-yl)dodecyl)benzamide] |  |  |  |  |  |  | 5.21 | 4.05 | 12.3 | 100 | 100 | 100 |
| C[C@@H]1CN(CCCCCCCCCCCCNC(=O)c2cccnc2N)C[C@H](C)O1 [Compound 110, 2-amino-N-(12-((2S,6R)-2,6-dimethylmorpholino)dodecyl)nicotinamide] |  |  |  |  |  |  | -36.7 | 100 | 100 | 100 | 100 | 100 |
| CS(=O)(=O)c1ncccc1C(=O)NCCCCCCCCCCCCF [Compound 67, N-(12-fluoro-dodecyl)-2-methylsulfonyl-nicotinamide] |  |  |  |  |  |  | 0 | 0 | 0 | -3.83 | 73.8 | 100 |
| CN1CCN(CCCCCCCCCCCCNC(=O)c2ccccc2-c2ccccc2)CC1 [Compound 194, N-(12-(4-methylpiperazin-1-yl)dodecyl)-[1,1′-biphenyl]-2-carboxamide] |  |  |  |  |  |  | -4.09 | -2.4 | -1.68 | 100 | 100 | 100 |
| Nc1ncccc1C(=O)NCCCCCCCCCCCCn1ccc2ccc(I)cc21 [Compound 106, 2-Amino-N-(12-(6-iodo-1H-indol-1-yl)dodecyl)nicotinamide] |  |  |  |  |  |  | 0.44 | -1.9 | 0.44 | 100 | 100 | 100 |
| CN1CCN(CCCCCCCCCCCCNC(=O)c2ccccc2-c2ncc[nH]2)CC1 [Compound 192, 2-(1H-imidazol-2-yl)-N-(12-(4-methylpiperazin-1-yl)dodecyl)benzamide] |  |  |  |  |  |  | -3.25 | -0.84 | 0.96 | 99.8 | 100 | 100 |
